Data as given in ChEMBL document CHEMBL4715896, “A styrylpyrone dimer isolated from Aniba heringeri causes apoptosis in MDA-MB-231 triple-negative breast cancer cells” (Bioorg Med Chem, 2021).
Active and inactive are the calls of the source. The rule behind the calls is not given here.

Legend:
[1] = Cytotoxicity against mouse NIH/3T3 cells assessed as growth inhibition after 48 hrs by SRB assay; format: cell-based, NIH3T3
[2] = Selectivity index, ratio of GI50 for cytotoxicity against mouse NIH/3T3 cells to GI50 for human PC3 cells; format: toxicity, cell-based; settings: NIH/3T3 cells and PC3 cells, read-out: RatioGI50
MDA-MB-231 [3] = test: Growth inhibition of human MDA-MB-231 cells incubated for 48 hrs by sulforhodamine B assay; format: functional
PC-3 = test: Growth inhibition of human PC3 cells incubated for 48 hrs by sulforhodamine B assay; format: functional
[4] = Selectivity index, ratio of GI50 for cytotoxicity against mouse NIH/3T3 cells to GI50 for human HT-29 cells; format: toxicity, cell-based; settings: NIH/3T3 cells and HT-29 cells, read-out: RatioGI50
[5] = Selectivity index, ratio of GI50 for cytotoxicity against mouse NIH/3T3 cells to GI50 for human MCF7 cells; format: toxicity, cell-based; settings: NIH/3T3 cells and MCF7 cells, read-out: RatioGI50
HT-29 = test: Growth inhibition of human HT-29 cells incubated for 48 hrs by sulforhodamine B assay; format: functional
MCF7 = test: Growth inhibition of human MCF7 cells incubated for 48 hrs by sulforhodamine B assay; format: functional
786-0 = test: Growth inhibition of human 786-0 cells incubated for 48 hrs by sulforhodamine B assay; format: functional
[6] = Selectivity index, ratio of GI50 for cytotoxicity against mouse NIH/3T3 cells to GI50 for human 786-0 cells
[7] = Selectivity index, ratio of GI50 for cytotoxicity against mouse NIH/3T3 cells to GI50 for human MDA-MB-231 cells; format: toxicity, cell-based; settings: NIH/3T3 cells and MDA-MB-231 cells, read-out: RatioGI50
MDA-MB-231 [8] = test: Induction of apoptosis in human MDA-MB-231 cells assessed as apoptotic cells at 63 uM after 48 hrs by Annexin-V/7-AAD staining based flow cytometry relative to control; format: functional
MDA-MB-231 [9] = test: Induction of morphological changes in human MDA-MB-231 cells assessed as reduction in cell contact at 4.4 uM after 48 hrs by acridine orange/ethidium bromide double staining-based fluorescence/phase contrast microscopic analysis; format: functional
MDA-MB-231 [10] = test: Induction of morphological changes in human MDA-MB-231 cells assessed as formation of coarse clusters at 4.4 uM after 72 hrs by acridine orange/ethidium bromide double staining-based fluorescence/phase contrast microscopic analysis; format: functional, cell-based
MDA-MB-231 [11] = test: Induction of morphological changes in human MDA-MB-231 cells assessed as cells with irregular shape at 63 uM after 72 hrs by acridine orange/ethidium bromide double staining-based fluorescence/phase contrast microscopic analysis; format: functional, cell-based
MDA-MB-231 [12] = test: Induction of apoptosis in human MDA-MB-231 cells assessed as viable cells at 63 uM after 48 hrs by Annexin-V/7-AAD staining based flow cytometry relative to control; format: functional; settings: read-out: Activity
MDA-MB-231 [13] = test: Induction of apoptosis in human MDA-MB-231 cells assessed as appearance of apoptotic bodies at 63 uM after 48 hrs by acridine orange/ethidium bromide double staining-based fluorescence/phase contrast microscopic analysis; format: functional, cell-based
MDA-MB-231 [14] = test: Induction of apoptosis in human MDA-MB-231 cells assessed as increase in Bax gene expression at 63 uM after 48 hrs by RT-qPCR analysis; format: functional, cell-based
MDA-MB-231 [15] = test: Induction of apoptosis in human MDA-MB-231 cells assessed as appearance of apoptotic bodies at 63 uM after 72 hrs by acridine orange/ethidium bromide double staining-based fluorescence/phase contrast microscopic analysis; format: functional, cell-based
MDA-MB-231 [16] = test: Induction of apoptosis in human MDA-MB-231 cells assessed as activation of caspase-3 at 63 uM after 72 hrs by flow cytometry relative to untreated control; format: functional
MDA-MB-231 [17] = test: Induction of apoptosis in human MDA-MB-231 cells assessed as late apoptotic cells at 63 uM after 72 hrs by Annexin-V/7-AAD staining based flow cytometry relative to control; format: functional
MDA-MB-231 [18] = test: Induction of apoptosis in human MDA-MB-231 cells assessed as necrotic cells at 63 uM after 48 hrs by Annexin-V/7-AAD staining based flow cytometry relative to control; format: functional
MDA-MB-231 [19] = test: Induction of morphological changes in human MDA-MB-231 cells assessed as proliferation arrest at 4.4 uM after 48 hrs by acridine orange/ethidium bromide double staining-based fluorescence/phase contrast microscopic analysis; format: functional, cell-based
MDA-MB-231 [20] = test: Induction of morphological changes in human MDA-MB-231 cells assessed as reduction in cytoplasmic extension at 4.4 uM after 48 hrs by acridine orange/ethidium bromide double staining-based fluorescence/phase contrast microscopic analysis; format: functional, cell-based
MDA-MB-231 [21] = test: Induction of apoptosis in human MDA-MB-231 cells assessed as nuclei fragmentation at 63 uM after 48 hrs by acridine orange/ethidium bromide double staining-based fluorescence/phase contrast microscopic analysis; format: functional, cell-based
MDA-MB-231 [22] = test: Induction of morphological changes in human MDA-MB-231 cells assessed as reduction in number of cells at 63 uM after 48 hrs by acridine orange/ethidium bromide double staining-based fluorescence/phase contrast microscopic analysis; format: functional, cell-based
MDA-MB-231 [23] = test: Induction of apoptosis in human MDA-MB-231 cells assessed as effect on BIRC5 mRNA expression at 63 uM after 48 hrs by RT-qPCR analysis; format: functional, cell-based
MDA-MB-231 [24] = test: Induction of apoptosis in human MDA-MB-231 cells assessed as increase in Bax/Bcl2 gene expression at 63 uM after 48 hrs by RT-qPCR analysis; format: functional, cell-based
MDA-MB-231 [25] = test: Induction of apoptosis in human MDA-MB-231 cells assessed as apoptotic cells at 63 uM after 72 hrs by Annexin-V/7-AAD staining based flow cytometry relative to control; format: functional
MDA-MB-231 [26] = test: Induction of morphological changes in human MDA-MB-231 cells assessed as loss of cell adhesion at 63 uM after 72 hrs by acridine orange/ethidium bromide double staining-based fluorescence/phase contrast microscopic analysis; format: functional
MDA-MB-231 [27] = test: Induction of apoptosis in human MDA-MB-231 cells assessed as viable cells at 63 uM after 72 hrs by Annexin-V/7-AAD staining based flow cytometry relative to control; format: functional; settings: read-out: Activity
MDA-MB-231 [28] = test: Induction of apoptosis in human MDA-MB-231 cells assessed as reduction in bcl2 gene expression at 63 uM after 48 hrs by RT-qPCR analysis; format: functional, cell-based
MDA-MB-231 [29] = test: Induction of apoptosis in human MDA-MB-231 cells assessed as formation of apoptotic bodies after 72 hrs by Hoechst 33342 staining based analysis relative to control; format: functional
MDA-MB-231 [30] = test: Induction of morphological changes in human MDA-MB-231 cells assessed as loss of elongated spindle morphology at 4.4 uM after 48 hrs by acridine orange/ethidium bromide double staining-based fluorescence/phase contrast microscopic analysis; format: functional, cell-based
MDA-MB-231 [31] = test: Induction of morphological changes in human MDA-MB-231 cells assessed as formation of atypical cell clusters at 4.4 uM after 72 hrs by acridine orange/ethidium bromide double staining-based fluorescence/phase contrast microscopic analysis; format: functional
MDA-MB-231 [32] = test: Induction of apoptosis in human MDA-MB-231 cells assessed as chromatin condensation at 63 uM after 72 hrs by acridine orange/ethidium bromide double staining-based fluorescence/phase contrast microscopic analysis; format: functional, cell-based
MDA-MB-231 [33] = test: Induction of morphological changes in human MDA-MB-231 cells assessed as reduction in number of cells at 63 uM after 72 hrs by acridine orange/ethidium bromide double staining-based fluorescence/phase contrast microscopic analysis; format: functional, cell-based
MDA-MB-231 [34] = test: Induction of morphological changes in human MDA-MB-231 cells assessed as loss of cell cell interaction at 63 uM after 72 hrs by acridine orange/ethidium bromide double staining-based fluorescence/phase contrast microscopic analysis; format: functional
MDA-MB-231 [35] = test: Induction of apoptosis in human MDA-MB-231 cells assessed as nuclei fragmentation at 63 uM after 72 hrs by acridine orange/ethidium bromide double staining-based fluorescence/phase contrast microscopic analysis; format: functional, cell-based
MDA-MB-231 [36] = test: Induction of apoptosis in human MDA-MB-231 cells assessed as necrotic cells at 63 uM after 72 hrs by Annexin-V/7-AAD staining based flow cytometry relative to control; format: functional
MDA-MB-231 [37] = test: Induction of apoptosis in human MDA-MB-231 cells assessed as chromatin condensation at 63 uM after 48 hrs by acridine orange/ethidium bromide double staining-based fluorescence/phase contrast microscopic analysis; format: functional, cell-based
MDA-MB-231 [38] = test: Induction of apoptosis in human MDA-MB-231 cells assessed as late apoptotic cells at 63 uM after 48 hrs by Annexin-V/7-AAD staining based flow cytometry relative to control; format: functional
MDA-MB-231 [39] = test: Induction of apoptosis in human MDA-MB-231 cells assessed as formation of apoptotic bodies after 48 hrs by Hoechst 33342 staining based analysis relative to control; format: functional
MDA-MB-231 [40] = test: Induction of apoptosis in human MDA-MB-231 cells assessed as activation of caspase-3 at 63 uM after 48 hrs by flow cytometry; format: functional, cell-based

O=c1cccc([C@H]2[C@H](c3ccccc3)[C@H](c3cccc(=O)o3)[C@H]2c2ccccc2)o1
GI50 at 48 h [1]: 503 µM | selectivity ratio [2]: 5.22 | GI50 (MDA-MB-231 [3]): 34.2 µM | GI50 (PC-3): 96.3 µM | selectivity ratio [4]: 5.67 | selectivity ratio at 48 h [5]: 41.1 | GI50 (HT-29): 88.7 µM | GI50 (MCF7): 12.2 µM | GI50 (786-0): 567 µM | RatioGI50 [6]: 0.88 | selectivity ratio at 48 h [7]: 14.7

O=C1C=C[C@@H]2[C@H](c3ccccc3)[C@@H](c3cccc(=O)o3)[C@]2(/C=C/c2ccccc2)O1
Activity (MDA-MB-231 [8]): 17% | Activity (MDA-MB-231 [9]): Active | Activity (MDA-MB-231 [10]): Active | Activity (MDA-MB-231 [11]): Active | GI50 at 48 h [1]: 158 µM | selectivity ratio [2]: 2.27 | viability at 63 µM (MDA-MB-231 [12]): 28.4% | Activity (MDA-MB-231 [13]): Active | GI50 (MDA-MB-231 [3]): 4.42 µM | Activity (MDA-MB-231 [14]): Active | Activity (MDA-MB-231 [15]): Active | fold change (FC) (MDA-MB-231 [16]): 4 | GI50 (PC-3): 69.5 µM | Activity (MDA-MB-231 [17]): 37% | selectivity ratio [4]: 2.26 | Activity (MDA-MB-231 [18]): 2% | Activity (MDA-MB-231 [19]): Active | Activity (MDA-MB-231 [20]): Active | Activity (MDA-MB-231 [21]): Active | Activity (MDA-MB-231 [22]): Active | selectivity ratio at 48 h [5]: 3.14 | Activity (MDA-MB-231 [23]): Active | GI50 (HT-29): 69.7 µM | Activity (MDA-MB-231 [24]): Active | Activity (MDA-MB-231 [25]): 11% | Activity (MDA-MB-231 [26]): Active | viability at 63 µM (MDA-MB-231 [27]): 50% | GI50 (MCF7): 50.2 µM | GI50 (786-0): 61.7 µM | Activity (MDA-MB-231 [28]): inactive | Activity (MDA-MB-231 [29]): 33% | Activity (MDA-MB-231 [30]): Active | Activity (MDA-MB-231 [31]): Active | Activity (MDA-MB-231 [32]): Active | Activity (MDA-MB-231 [33]): Active | Activity (MDA-MB-231 [34]): Active | Activity (MDA-MB-231 [35]): Active | Activity (MDA-MB-231 [36]): 5% | RatioGI50 [6]: 2.55 | selectivity ratio at 48 h [7]: 35.7 | Activity (MDA-MB-231 [37]): Active | Activity (MDA-MB-231 [38]): 13% | Activity (MDA-MB-231 [39]): 56% | Activity (MDA-MB-231 [40]): Active

O=c1cccc(/C=C/c2ccccc2)o1
GI50 at 48 h [1]: 1270 µM | selectivity ratio [2]: 14 | GI50 (MDA-MB-231 [3]): 98 µM | GI50 (PC-3): 90.4 µM | selectivity ratio [4]: 8.73 | selectivity ratio at 48 h [5]: 11.8 | GI50 (HT-29): 145 µM | GI50 (MCF7): 107 µM | GI50 (786-0): 176 µM | RatioGI50 [6]: 7.24 | selectivity ratio at 48 h [7]: 12.9

COc1cccc2c1C(=O)c1c(O)c3c(c(O)c1C2=O)C[C@@](O)(C(=O)CO)C[C@@H]3O[C@H]1C[C@H](N)[C@H](O)[C@H](C)O1 [DOXORUBICIN]
GI50 at 48 h [1]: 0.28 µM | GI50 (MDA-MB-231 [3]): 1.84 µM | GI50 (PC-3): 0.24 µM | GI50 (HT-29): 0.28 µM | GI50 (MCF7): 0.25 µM | GI50 (786-0): 0.16 µM
